Where a name gives a salt, the structure may show the parent alone.
Biological target: T1, Adrenergic β2 (Homo sapiens, UniProt P07550)
T1 construct: Adherent H292 cells were removed from tissue culture flasks; endogenous in cells; host or cells: H292 cells
Experiment: Adrenergic β2 mediated cAMP production in H292 cells (AlphaScreen cAMP detection)
Format: cell-based
Set-up: key to β2 Int Act: fraction of formoterol maximum activity (formoterol = 1)
Settings: Intrinsic Activity as a fraction relative to the maximum activity determined for formoterol
Method: Adrenergic β2 Mediated cAMP Production
H292 cells were grown in 225 cm2 flasks incubator at 37° C., 5% CO2 in RPMI medium containing, 10% (v/v) FBS (foetal bovine serum) and 2 mM L-glutamine.
Adherent H292 cells were removed from tissue culture flasks by treatment with Accutase™ cell detachment solution for 15 minutes. Flasks were incubated for 15 minutes in a humidified incubator at 37° C., 5% CO2. Detached cells were re-suspended in RPMI media (containing 10% (v/v) FBS and 2 mM L-glutamine) at 1×10^6 cells per mL. 10000 cells in 100 μL were added to each well of a tissue-culture-treated 96-well plate and the cells incubated overnight in a humidified incubator at 37° C., 5% CO2. The culture media was removed and cells were washed twice with 100 μL assay buffer and replaced with 50 μL assay buffer (HBSS solution containing 10 mM HEPES pH7.4 and 5 mM glucose). Cells were rested at room temperature for 20 minutes after which time 25 μL of rolipram (1.2 mM made up in assay buffer containing 2.4% (v/v) dimethylsulphoxide) was added. Cells were incubated with rolipram for 10 minutes after which time test compounds were added and the cells were incubated for 60 minutes at room temperature. The final rolipram concentration in the assay was 300 μM and final vehicle concentration was 1.6% (v/v) dimethylsulphoxide. The reaction was stopped by removing supernatants, washing once with 100 μL assay buffer and replacing with 50 μL lysis buffer. The cell monolayer was frozen at −80° C. for 30 minutes (or overnight).
AlphaScreen™ cAMP Detection
The concentration of cAMP (cyclic adenosine monophosphate) in the cell lysate was determined using AlphaScreen™ methodology. The frozen cell plate was thawed for 20 minutes on a plate shaker then 10 μL of the cell lysate was transferred to a 96-well white plate. 40 μL of mixed AlphaScreen™ detection beads pre-incubated with biotinylated cAMP, was added to each well and the plate incubated at room temperature for 10 hours in the dark. The AlphaScreen™ signal was measured using an EnVision spectrophotometer (Perkin-Elmer Inc.) with the recommended manufacturer's settings. cAMP concentrations were determined by reference to a calibration curve determined in the same experiment using standard cAMP concentrations. Concentration response curves for agonists were constructed and data was fitted to a four parameter logistic equation to determine both the pEC50 and Intrinsic Activity. Intrinsic Activity was expressed as a fraction relative to the maximum activity determined for formoterol in each experiment.

T1 sequence (P07550 whole entry): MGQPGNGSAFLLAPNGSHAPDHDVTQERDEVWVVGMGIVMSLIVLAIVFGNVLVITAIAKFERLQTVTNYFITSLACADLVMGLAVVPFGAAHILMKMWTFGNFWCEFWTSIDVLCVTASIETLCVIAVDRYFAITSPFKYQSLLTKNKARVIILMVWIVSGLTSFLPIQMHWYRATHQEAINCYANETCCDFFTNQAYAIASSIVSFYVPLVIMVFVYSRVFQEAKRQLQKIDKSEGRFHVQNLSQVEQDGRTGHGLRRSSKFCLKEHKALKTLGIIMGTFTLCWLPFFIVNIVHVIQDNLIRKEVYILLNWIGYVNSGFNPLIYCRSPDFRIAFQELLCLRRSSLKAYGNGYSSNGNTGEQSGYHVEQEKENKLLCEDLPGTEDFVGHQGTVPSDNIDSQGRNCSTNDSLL

Row | β2 Int Act | Structure (SMILES)
1 | 0.79 | O=C1COc2c(CCNCCN(C(=O)CCNCCc3ccc(Cl)cc3)C3CCCCCC3)ccc(O)c2N1 [Example 63, 3-(4-Chlorophenethylamino)-N-cycloheptyl-N-(2-(2-(5-hydroxy-3-oxo-3,4-dihydro-2H-benzo[b][1,4]oxazin-8-yl)ethylamino)ethyl)propanamide bis(trifluoroacetate)]
2 | 0.93 | O=C1COc2c(CCNCCN(C(=O)CCNCCc3cc(F)cc(F)c3)C3CCCCCC3)ccc(O)c2N1 [Example 65, N-Cycloheptyl-3-(3,5-difluorophenethylamino)-N-(2-(2-(5-hydroxy-3-oxo-3,4-dihydro-2H-benzo[b][1,4]oxazin-8-yl)ethylamino)ethyl)propanamide bis(trifluoroacetate)]
3 | 0.89 | CCCC[C@@H](C)N(CCNCCc1ccc(O)c2c1OCC(=O)N2)C(=O)CCNCCc1cc(F)cc(Cl)c1 [Example 50, (R)-3-(3-Chloro-5-fluorophenethylamino)-N-(hexan-2-yl)-N-(2-(2-(5-hydroxy-3-oxo-3,4-dihydro-2H-benzo[b][1,4]oxazin-8-yl)ethylamino)ethyl)propanamide bis(trifluoroacetate)]
4 | 0.92 | CCCC[C@@H](C)N(CCNCCc1ccc(O)c2c1OCC(=O)N2)C(=O)CCNCCc1ccc(Cl)c(Cl)c1 [Example 55, (R)-3-(3,4-Dichlorophenethylamino)-N-(hexan-2-yl)-N-(2-(2-(5-hydroxy-3-oxo-3,4-dihydro-2H-benzo[b][1,4]oxazin-8-yl)ethylamino)ethyl)propanamide bis(trifluoroacetate)]
5 | 0.86 | O=C(CCNCCc1cccc(Cl)c1)N(CCNCCc1ccc(O)c2[nH]c(=O)ccc12)C1CCCCC1 [Example 13, 3-(3-Chlorophenethylamino)-N-cyclohexyl-N-(2-(2-(8-hydroxy-2-oxo-1,2-dihydroquinolin-5-yl)ethylamino)ethyl)propanamide bis(trifluoroacetate)]
6 | 0.95 | O=C1COc2c(CCNCCN(C(=O)CCNCCc3cc(F)cc(Cl)c3)C3CCCCC3)ccc(O)c2N1 [Example 41, 3-(3-Chloro-5-fluorophenethylamino)-N-cyclohexyl-N-(2-(2-(5-hydroxy-3-oxo-3,4-dihydro-2H-benzo[b][1,4]oxazin-8-yl)ethylamino)ethyl)propanamide bis(trifluoroacetate)]
7 | 0.86 | O=C1COc2c(CCNCCN(C(=O)CCNCCc3ccccc3Cl)C3CCCCC3)ccc(O)c2N1 [Example 28, 3-(2-Chlorophenethylamino)-N-cyclohexyl-N-(2-(2-(5-hydroxy-3-oxo-3,4-dihydro-2H-benzo[b][1,4]oxazin-8-yl)ethylamino)ethyl)propanamide bis(trifluoroacetate)]
8 | 0.97 | O=C1COc2c(CCNCCN(C(=O)CCOCCc3cccc(Cl)c3)C3CCCCC3)ccc(O)c2N1 [Example 77, 3-(3-Chlorophenethoxy)-N-cyclohexyl-N-(2-(2-(5-hydroxy-3-oxo-3,4-dihydro-2H-benzo[b][1,4]oxazin-8-yl)ethylamino)ethyl)propanamide trifluoroacetate]
9 | 0.99 | O=C1COc2c(CCNCCN(C(=O)CCNCCc3cc(F)cc(Cl)c3)C3CCCCCC3)ccc(O)c2N1 [Example 66, 3-(3-Chloro-5-fluorophenethylamino)-N-cycloheptyl-N-(2-(2-(5-hydroxy-3-oxo-3,4-dihydro-2H-benzo[b][1,4]oxazin-8-yl)ethylamino)ethyl)propanamide bis(trifluoroacetate)]
10 | 0.95 | CCCC[C@@H](C)N(CCNCCc1ccc(O)c2c1OCC(=O)N2)C(=O)CCNCCc1ccc(F)c(F)c1 [Example 52, (R)-3-(3,4-Difluorophenethylamino)-N-(hexan-2-yl)-N-(2-(2-(5-hydroxy-3-oxo-3,4-dihydro-2H-benzo[b][1,4]oxazin-8-yl)ethylamino)ethyl)propanamide bis(trifluoroacetate)]
11 | 0.91 | C[C@H](CNCCC(=O)N(CCNCCc1ccc(O)c2[nH]c(=O)ccc12)C1CCCCCC1)c1ccccc1 [Example 9, (S)—N-Cycloheptyl-N-(2-(2-(8-hydroxy-2-oxo-1,2-dihydroquinolin-5-yl)ethylamino)ethyl)-3-(2-phenylpropylamino)propanamide bis(trifluoroacetate)]
12 | 0.85 | O=C(CCNCCc1ccc(F)c(F)c1)N(CCNCCc1ccc(O)c2[nH]c(=O)ccc12)C1CCCCC1 [Example 16, N-Cyclohexyl-3-(3,4-difluorophenethylamino)-N-(2-(2-(8-hydroxy-2-oxo-1,2-dihydroquinolin-5-yl)ethylamino)ethyl)propanamide bis(trifluoroacetate)]
13 | 0.93 | O=C1COc2c(CCNCCN(C(=O)CCNCCc3cccc(Cl)c3)C3CCCCCC3)ccc(O)c2N1 [Example 68, 3-(3-Chlorophenethylamino)-N-cycloheptyl-N-(2-(2-(5-hydroxy-3-oxo-3,4-dihydro-2H-benzo[b][1,4]oxazin-8-yl)ethylamino)ethyl)propanamide bis(trifluoroacetate)]
14 | 0.87 | O=C1COc2c(CCNCCN(C(=O)CCNCCc3cc(F)cc(F)c3)C3CCCCC3)ccc(O)c2N1 [Example 35, N-Cyclohexyl-3-(3,5-difluorophenethylamino)-N-(2-(2-(5-hydroxy-3-oxo-3,4-dihydro-2H-benzo[b][1,4]oxazin-8-yl)ethylamino)ethyl)propanamide bis(trifluoroacetate)]
15 | 0.65 | CCOc1cccc(CCNCCC(=O)N(CCNCCc2ccc(O)c3[nH]c(=O)ccc23)C2CCCCCC2)c1 [Example 11, N-Cycloheptyl-3-(3-ethoxyphenethylamino)-N-(2-(2-(8-hydroxy-2-oxo-1,2-dihydroquinolin-5-yl)ethylamino)ethyl)propanamide bis(trifluoroacetate)]
16 | 0.91 | O=C1COc2c(CCNCCN(C(=O)CCNCCc3cccc(Cl)c3Cl)C3CCCCC3)ccc(O)c2N1 [Example 29, N-Cyclohexyl-3-(2,3-dichlorophenethylamino)-N-(2-(2-(5-hydroxy-3-oxo-3,4-dihydro-2H-benzo[b][1,4]oxazin-8-yl)ethylamino)ethyl)propanamide bis(trifluoroacetate)]
17 | 0.94 | Cl.O=C(CCOCCc1ccccc1F)N(CCNCCc1ccc(O)c2[nH]c(=O)ccc12)C1CCCCC1 [Example 73, N-Cyclohexyl-3-(2-fluorophenethoxy)-N-(2-(2-(8-hydroxy-2-oxo-1,2-dihydroquinolin-5-yl)ethylamino)ethyl)propanamide hydrochloride]
18 | 0.91 | CC[C@@H](C)N(CCNCCc1ccc(O)c2c1OCC(=O)N2)C(=O)CCNCCc1ccc(Cl)c(Cl)c1 [Example 58, (R)—N-sec-Butyl-3-(3,4-dichlorophenethylamino)-N-(2-(2-(5-hydroxy-3-oxo-3,4-dihydro-2H-benzo[b][1,4]oxazin-8-yl)ethylamino)ethyl)propanamide dihydrochloride]
19 | 0.74 | O=C1COc2c(CCNCCN(C(=O)CCNCCc3ccc(Cl)c(Cl)c3)C3CCCCCC3)ccc(O)c2N1 [Example 26, N-Cycloheptyl-3-(3,4-dichlorophenethylamino)-N-(2-(2-(5-hydroxy-3-oxo-3,4-dihydro-2H-benzo[b][1,4]oxazin-8-yl)ethylamino)ethyl)propanamide bis(trifluoroacetate)]
20 | 0.92 | CC[C@@H](C)N(CCNCCc1ccc(O)c2[nH]c(=O)ccc12)C(=O)CCOCCc1ccccc1.Cl [Example 79, (R)—N-sec-Butyl-N-(2-(2-(8-hydroxy-2-oxo-1,2-dihydroquinolin-5-yl)ethylamino)ethyl)-3-phenethoxypropanamide hydrochloride]
21 | 0.9 | O=C1COc2c(CCNCCN(C(=O)CCNCCc3cc(Cl)ccc3F)C3CCCCC3)ccc(O)c2N1 [Example 34, 3-(5-Chloro-2-fluorophenethylamino)-N-cyclohexyl-N-(2-(2-(5-hydroxy-3-oxo-3,4-dihydro-2H-benzo[b][1,4]oxazin-8-yl)ethylamino)ethyl)propanamide bis(trifluoroacetate)]
22 | 0.94 | O=C1COc2c(CCNCCN(C(=O)CCNCCc3ccc(Cl)cc3Cl)C3CCCCC3)ccc(O)c2N1 [Example 31, N-Cyclohexyl-3-(2,4-dichlorophenethylamino)-N-(2-(2-(5-hydroxy-3-oxo-3,4-dihydro-2H-benzo[b][1,4]oxazin-8-yl)ethylamino)ethyl)propanamide bis(trifluoroacetate)]

Reference: patent US20120142646A1, “Novel Compounds 621” (priority 2006, published 2012)
